Data reported in BindingDB's records for doi:10.1021/jm020122x (The Royal Danish School of Pharmacy, 2002).

Molecular target: Metabotropic glutamate receptor 2 (Rattus norvegicus) (UniProt P31421)
Experiment: Compound was evaluated for the inhibitory activity against cloned Metabotropic glutamate receptor 2

Metabotropic glutamate receptor 2 (Rattus norvegicus), sequence (P31421 whole entry, looked up): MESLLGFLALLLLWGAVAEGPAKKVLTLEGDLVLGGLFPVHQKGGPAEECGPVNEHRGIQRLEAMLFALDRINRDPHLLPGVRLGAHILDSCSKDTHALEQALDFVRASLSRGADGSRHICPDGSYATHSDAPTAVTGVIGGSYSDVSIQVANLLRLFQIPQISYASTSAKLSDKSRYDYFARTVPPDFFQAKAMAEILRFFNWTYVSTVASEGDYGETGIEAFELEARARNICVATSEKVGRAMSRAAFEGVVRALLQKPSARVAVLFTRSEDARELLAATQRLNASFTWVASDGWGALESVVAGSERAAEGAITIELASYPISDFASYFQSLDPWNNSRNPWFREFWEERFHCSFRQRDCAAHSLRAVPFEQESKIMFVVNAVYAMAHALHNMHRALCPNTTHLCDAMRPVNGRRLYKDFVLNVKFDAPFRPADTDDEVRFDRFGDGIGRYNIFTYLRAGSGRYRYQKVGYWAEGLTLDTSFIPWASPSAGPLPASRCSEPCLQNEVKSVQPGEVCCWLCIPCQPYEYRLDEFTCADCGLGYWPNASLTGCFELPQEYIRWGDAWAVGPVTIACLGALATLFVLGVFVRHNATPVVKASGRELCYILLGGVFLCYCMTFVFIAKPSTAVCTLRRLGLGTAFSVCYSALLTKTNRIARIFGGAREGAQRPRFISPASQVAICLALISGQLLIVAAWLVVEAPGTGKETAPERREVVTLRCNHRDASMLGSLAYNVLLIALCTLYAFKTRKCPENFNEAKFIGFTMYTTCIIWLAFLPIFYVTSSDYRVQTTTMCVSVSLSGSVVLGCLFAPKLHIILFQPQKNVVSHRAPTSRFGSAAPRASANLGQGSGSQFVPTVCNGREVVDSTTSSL

SMILES	EC50 [µM]
Cc1o[nH]c(=O)c1CC[C@H](N)C(=O)O [2-Amino-4-(3-hydroxy-5-methyl-isoxazol-4-yl)-butyric acid(S-homo-AMPA)]	> 1000
Cc1o[nH]c(=O)c1CC[C@@H](N)C(=O)O [(R)-2-Amino-4-(3-hydroxy-5-methyl-isoxazol-4-yl)-butyric acid]	> 1000
